Data reported in patent US9221809B2 (MERCK SHARP & DOHME CORP., priority 2011, dated 2015).
pIC50: −log10 of the molar value. Structures can show the parent of a compound that is named as a salt. Where two headings read alike, the source gives them in different places.

Target: IRAK4 (Homo sapiens (Human), UniProt Q9NWZ3)
Assay: IRAK4 kinase activity, IMAP fluorescence polarization assay
Format: biochemical
Details: 100 μM ATP
In short: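 GST-tagged IRAK4 at 0.5 nM phosphorylates 100 nM fluorescent peptide substrate with 100 μM ATP in pH 7.2 Tris buffer containing MgCl2, DTT and Tween 20, 30 min at 25 °C. Reaction stopped with IMAP binding reagent; phosphorylation read as increased fluorescence polarization.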

[1] = 0.5 nM GST tagged IRAK4, read-out: IRAK4 IC50
[2] = unit inferred, read-out: IRAK4 IC50

IRAK4, sequence (Q9NWZ3 whole entry): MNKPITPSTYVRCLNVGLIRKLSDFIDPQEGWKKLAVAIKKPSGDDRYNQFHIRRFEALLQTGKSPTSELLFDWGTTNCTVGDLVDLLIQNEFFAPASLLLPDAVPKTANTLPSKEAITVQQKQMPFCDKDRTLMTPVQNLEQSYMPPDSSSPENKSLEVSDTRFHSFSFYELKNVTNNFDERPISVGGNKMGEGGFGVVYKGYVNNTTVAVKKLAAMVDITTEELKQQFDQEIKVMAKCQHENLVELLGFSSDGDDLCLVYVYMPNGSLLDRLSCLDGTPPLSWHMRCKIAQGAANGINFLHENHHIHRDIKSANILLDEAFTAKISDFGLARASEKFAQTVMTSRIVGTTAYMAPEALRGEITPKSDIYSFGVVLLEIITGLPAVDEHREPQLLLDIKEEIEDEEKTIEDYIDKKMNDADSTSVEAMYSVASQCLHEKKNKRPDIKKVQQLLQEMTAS

| SMILES | pIC50 (read-out: IRAK4 IC50) | pIC50 (read-out: IC50) | also measured |
| --- | --- | --- | --- |
| O=c1[nH]c(N2CCOCC2)nc(N[C@@H]2CCCNC2)c1-c1nc(-c2ccc(C(F)(F)F)cn2)cs1 [Example 206] | 5.62 | – | – |
| Cc1cc(N2CCN(c3nc(N[C@@H]4CCCNC4)c(-c4nc5ccccc5s4)c(=O)[nH]3)CC2)sn1 [Example 157, (R)-5-(benzo[d]thiazol-2-yl)-2-(4-(3-methylisothiazol-5-yl)piperazin-1-yl)-6-(piperidin-3-ylamino)pyrimidin-4(3H)-one] | 8.10 | – | – |
| O=c1[nH]c(N2CCC(c3ccccc3C(F)(F)F)CC2)nc(N[C@@H]2CCCNC2)c1-c1ccc2ccccc2n1 [Example 190, (R)-6-(piperidin-3-ylamino)-5-(quinolin-2-yl)-2-(4-(2-(trifluoromethyl)phenyl)piperidin-1-yl)pyrimidin-4(3H)-one] | 7.49 | – | – |
| Cc1nccc2sc(-c3c(N[C@@H]4CCCNC4)nc(N4CCOCC4)[nH]c3=O)nc12 [Example 99, (R)-5-(4-Methylthiazolo[4,5-c]pyridin-2-yl)-2-morpholino-6-(piperidin-3-ylamino)pyrimidin-4(3H)-one.HCl] | – | – | pIC50 [1]: 8.24 |
| Cc1cnccc1N1CCN(c2nc(N[C@@H]3CCCNC3)c(-c3nc4ccccc4s3)c(=O)[nH]2)CC1 [Example 158, (R)-5-(benzo[d]thiazol-2-yl)-2-(4-(3-methylpyridin-4-yl)piperazin-1-yl)-6-(piperidin-3-ylamino)pyrimidin-4(3H)-one] | 8.10 | – | – |
| O=c1[nH]c(N2CCOCC2)nc(N[C@@H]2CCCNC2)c1-c1ncc(F)cn1 [Example 220, (R)-5-fluoro-2′-morpholino-6′-(piperidin-3-ylamino)-[2,5′-bipyrimidin]-4′(3′H)-one] | – | – | pIC50 [1]: 6.66 |
| CC1(O)CCN(c2nc(N[C@@H]3CCCNC3)c(-c3ccc4ccccc4n3)c(=O)[nH]2)C1 (stereo partly drawn) [Example 181, 2-(3-hydroxy-3-methylpyrrolidin-1-yl)-6-((R)-piperidin-3-ylamino)-5-(quinolin-2-yl)pyrimidin-4(3H)-one] | 7.51 | – | – |
| CCN1CCC(c2nc(N[C@@H]3CCCNC3)c(-c3nc4ccccc4s3)c(=O)[nH]2)CC1 [Example 227] | – | 5.85 | – |
| COCCCNc1nc(N[C@@H]2C[C@H](CO)[C@@H](O)[C@H]2O)c(-c2nc3ccccc3s2)c(=O)[nH]1 [Example 40, 5-(Benzo[d]thiazol-2-yl)-6-(((1R,2S,3R,4R)-2,3-dihydroxy-4-(hydroxymethyl)cyclopentyl)amino)-2-((3-methoxypropyl)amino)pyrimidin-4(3H)-one HCl] | – | – | pIC50 [1]: 7.22 |
| COc1ccc(N2CCN(c3nc(N[C@@H]4CCCNC4)c(-c4nc5ccccc5s4)c(=O)[nH]3)CC2)cc1 [Example 154, (R)-5-(benzo[d]thiazol-2-yl)-2-(4-(4-methoxyphenyl)piperazin-1-yl)-6-(piperidin-3-ylamino)pyrimidin-4(3H)-one] | 8.00 | – | – |
| O=c1[nH]c(N2CCC3(CCN(c4ccccc4)C3)C2)nc(N[C@@H]2CCCNC2)c1-c1nc2ccccc2s1 (stereo partly drawn) [Example 334, 5-(1,3-benzothiazol-2-yl)-2-[7-phenyl-2,7-diazaspiro[4.4]nonan-2-yl]-6-[[(3R)-piperidin-3-yl]amino]-3,4-dihydropyrimidin-4-one] | – | 7.68 | – |
| CC1(O)CN(c2nc(N[C@@H]3CCCNC3)c(-c3ccc4ccccc4n3)c(=O)[nH]2)C1 [Example 171, (R)-2-(3-hydroxy-3-methylazetidin-1-yl)-6-(piperidin-3-ylamino)-5-(quinolin-2-yl)pyrimidin-4(3H)-one] | 5.50 | – | – |
| O=c1[nH]c(C2CCN(c3cccnc3)CC2)nc(N[C@@H]2CCCNC2)c1-c1nc2ccccc2s1 [Example 245, (R)-5-(benzo[d]thiazol-2-yl)-6-(piperidin-3-ylamino)-2-(1-(pyridin-3-yl)piperidin-4-yl)pyrimidin-4(3H)-one] | – | 7.05 | – |
| CC(=O)NCC1CCN(c2nc(N[C@@H]3C[C@H](CO)[C@@H](O)[C@H]3O)c(-c3nc4ccccc4s3)c(=O)[nH]2)CC1 [Example 79, N-((1-(5-(benzo[d]thiazol-2-yl)-4-((1R,2S,3R,4R)-2,3-dihydroxy-4-(hydroxymethyl)cyclopentylamino)-6-oxo-1,6-dihydropyrimidin-2-yl)piperidin-4-yl)methyl)acetamide] | – | – | pIC50 [2]: 7.44 |
| O=c1[nH]c(N2CCC(c3cnccn3)CC2)nc(N[C@@H]2C[C@H](CO)[C@@H](O)[C@H]2O)c1-c1nc2ccccc2s1 [Example 69, 5-(benzo[d]thiazol-2-yl)-6-((1R,2S,3R,4R)-2,3-dihydroxy-4-(hydroxymethyl)cyclopentylamino)-2-(4-(pyrazin-2-yl)piperidin-1-yl)pyrimidin-4(3H)-one] | – | – | pIC50 [2]: 7.90 |
| O=c1[nH]c(C2CCN(c3cnccn3)CC2)nc(N[C@@H]2CCCNC2)c1-c1nc2ccccc2s1 [Example 243, (R)-5-(benzo[d]thiazol-2-yl)-6-(piperidin-3-ylamino)-2-(1-(pyrazin-2-yl)piperidin-4-yl)pyrimidin-4(3H)-one] | – | 6.74 | – |
| O=c1[nH]c(N2CCN(c3ncccn3)CC2)nc(N[C@@H]2CCCNC2)c1-c1nc(-c2ccc(F)cc2)cs1 [Example 350, 5-[4-(4-fluorophenyl)-1,3-thiazol-2-yl]-6-[[(3R)-piperidin-3-yl]amino]-2-[4-(pyrimidin-2-yl)piperazin-1-yl]-3,4-dihydropyrimidin-4-one; trifluoroacetic acid] | – | 7.68 | – |
| Cc1cc2sc(-c3c(N[C@@H]4C[C@H](CO)[C@@H](O)[C@H]4O)nc(N4CCOCC4)[nH]c3=O)nc2c(C)n1 [Example 57, 6-(((1R,2S,3R,4R)-2,3-Dihydroxy-4-(hydroxymethyl)cyclopentyl)amino)-5-(4,6-dimethylthiazolo[4,5-c]pyridin-2-yl)-2-morpholinopyrimidin-4(3H)-one.HCl] | – | – | pIC50 [1]: 6.03 |
| O=c1[nH]c(N2CCN(c3ccccn3)CC2)nc(N[C@@H]2CCCNC2)c1-c1nc2ccccc2s1 [Example 132, (R)-5-(benzo[d]thiazol-2-yl)-6-(piperidin-3-ylamino)-2-(4-(pyridin-2-yl)piperazin-1-yl)pyrimidin-4(3H)-one] | 8.10 | – | – |
| O=c1[nH]c(N2CCN(c3cccc(Cl)n3)CC2)nc(N[C@@H]2CCCNC2)c1-c1nc2ccccc2s1 [Example 137, (R)-5-(benzo[d]thiazol-2-yl)-2-(4-(6-chloropyridin-2-yl)piperazin-1-yl)-6-(piperidin-3-ylamino)pyrimidin-4(3H)-one] | 7.60 | – | – |
| O=c1[nH]c(N2CC3(COC3)C2)nc(N[C@@H]2C[C@H](CO)[C@@H](O)[C@H]2O)c1-c1nc2ccccc2s1 [Example 13, 5-(Benzo[d]thiazol-2-yl)-6-((1R,2S,3R,4R)-2,3-dihydroxy-4-(hydroxymethyl)cyclopentylamino)-2-(2-oxa-6-azaspiro[3.3]heptan-6-yl)pyrimidin-4(3H)-one.HCl] | – | – | pIC50 [1]: 8.05 |
| O=c1[nH]c(N2CC3CC2CS(=O)(=O)C3)nc(N[C@@H]2CCCNC2)c1-c1ccc2ccccc2n1 (stereo partly drawn) [Example 174, 2-(3,3-dioxido-3-thia-6-azabicyclo[3.2.1]octan-6-yl)-6-((R)-piperidin-3-ylamino)-5-(quinolin-2-yl)pyrimidin-4(3H)-one] | 6.86 | – | – |

Continued, in another order:

| pIC50 (read-out: IRAK4 IC50) | pIC50 (read-out: IC50) | SMILES | also measured |
| --- | --- | --- | --- |
| 7.01 | – | CC1CN(c2nc(N[C@@H]3CCCNC3)c(-c3nc4ccccc4s3)c(=O)[nH]2)CCO1 (stereo partly drawn) [Example 126, 5-(benzo[d]thiazol-2-yl)-2-(2-methylmorpholino)-6-((R)-piperidin-3-ylamino)pyrimidin-4(3H)-one] | – |
| – | 6.35 | CC(=O)N1CCN(c2nc(N[C@@H]3CCCNC3)c(-c3nc4ccccc4s3)c(=O)[nH]2)CC1 [Example 316, 2-(4-acetylpiperazin-1-yl)-5-(1,3-benzothiazol-2-yl)-6-[[(3R)-piperidin-3-yl]amino]-3,4-dihydropyrimidin-4-one] | – |
| – | 7.26 | O=c1[nH]c(N2CCOCC2)nc(NCCN2CCNCC2)c1-c1nc2ccccc2s1 [Example 256, 5-(1,3-benzothiazol-2-yl)-2-(morpholin-4-yl)-6-[[2-(piperazin-1-yl)ethyl]amino]-3,4-dihydropyrimidin-4-one] | – |
| 6.37 | – | C[C@H]1COCCN1c1nc(N[C@@H]2CCCNC2)c(-c2nc3ccccc3s2)c(=O)[nH]1 [Example 128] | – |
| – | 6.47 | O=c1[nH]c(N2CCOCC2)nc(NCC2CCCCN2)c1-c1ccc2ccccc2n1 (stereo not drawn) [Example 276, 2-morpholino-6-(piperidin-2-ylmethylamino)-5-(quinolin-2-yl)pyrimidin-4(3H)-one] | – |
| 7.82 | – | Cc1nonc1N1CCN(c2nc(N[C@@H]3CCCNC3)c(-c3nc4ccccc4s3)c(=O)[nH]2)CC1 [Example 139, (R)-5-(benzo[d]thiazol-2-yl)-2-(4-(4-methyl-1,2,5-oxadiazol-3-yl)piperazin-1-yl)-6-(piperidin-3-ylamino)pyrimidin-4(3H)-one] | – |
| – | 5.64 | NC(=O)CNc1nc(N[C@@H]2CCCNC2)c(-c2nc3ccccc3s2)c(=O)[nH]1 [Example 302, (R)-2-(5-(benzo[d]thiazol-2-yl)-6-oxo-4-(piperidin-3-ylamino)-1,6-dihydropyrimidin-2-ylamino)acetamide bis(2,2,2-trifluoroacetate)] | – |
| – | 5.80 | CN(C)CCNc1nc(N2CCOCC2)[nH]c(=O)c1-c1ccc2ccccc2n1 [Example 272, 6-[[2-(dimethylamino)ethyl]amino]-2-(morpholin-4-yl)-5-(quinolin-2-yl)-3,4-dihydropyrimidin-4-one] | – |
| – | 6.19 | O=c1[nH]c(N2CCOCC2)nc(NCCNCCO)c1-c1nc2ccccc2s1 [Example 251, 5-(benzo[d]thiazol-2-yl)-6-(2-(2-hydroxyethyl-amino)ethylamino)-2-morpholino-pyrimidin-4(3H)-one] | – |
| – | 6.85 | CC1CCCN(c2nc(N[C@@H]3CCCNC3)c(-c3nc4ccccc4s3)c(=O)[nH]2)C1 (stereo partly drawn) [Example 290, 5-(benzo[d]thiazol-2-yl)-2-(3-methylpiperidin-1-yl)-6-((R)-piperidin-3-ylamino)pyrimidin-4(3H)-one] | – |
| – | 6.48 | CCC(CO)Nc1nc(N2CCOCC2)[nH]c(=O)c1-c1nc2ccccc2s1 (stereo not drawn) [Example 262, 5-(benzo[d]thiazol-2-yl)-6-(1-hydroxy-butan-2-ylamino)-2-morpholino-pyrimidin-4(3H)-one] | – |
